For orientation: IC50 means the concentration that inhibits the measured activity by half.

The structures appear in SMILES notation. Bounds are passed on as bounds.

One assay concerns Escherichia coli ATCC 25922. The assay can be described thus: 50% growth inhibitory concentration (IC50) determination, Iso-Sensitest broth dilution. Conditions: Escherichia coli, ATCC25922, 16 h, strain Escherichia coli ATCC 25922; 10-point broth dilution, optical density at 600 nm over 16 h; read-out: Escherichia coli growth inhibition IC50. It is filed as cell-based. Put shortly:
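Growth was tracked as optical density at 600 nm every 20 minutes for 16 h at 35±2° C. Compounds from DMSO stocks were serially diluted twofold over 10 points (e.g. 50–0.097 μM final) in Iso-Sensitest broth. Inhibition computed in log-phase growth to give IC50.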
(In general: Broth dilution looks for growth in wells or tubes with falling amounts of substance.)
In the case of `Cc1ccnc2c1CC(CNCCC1CN(c3ccc4c(n3)NC(=O)CO4)C(=O)O1)C2` (stereo not shown) [Example 89, 6-[5-[2-[(4-methyl-6,7-dihydro-5H-cyclopenta[b]pyridin-6-yl)methylamino]ethyl]-2-oxo-1,3-oxazolidin-3-yl]-4H-pyrido[3,2-b][1,4]oxazin-3-one], the concentration for half-maximal inhibition (IC50) was determined as 304 nM.

On to `O=C1COc2ccc(N3CC(CCCNCC4Cc5cccc(Cl)c5C4)OC3=O)nc2N1` (stereo not shown) [Example 2, 6-[5-[3-[(4-chloro-2,3-dihydro-1H-inden-2-yl)methylamino]propyl]-2-oxo-1,3-oxazolidin-3-yl]-4H-pyrido[3,2-b][1,4]oxazin-3-one], for which the IC50 is 332 nM.

Regarding `Cc1nc(OCC2(N)CC2)c(C)c2c1CC(CNCCC1CN(c3ccc4c(n3)NC(=O)CO4)C(=O)O1)C2` (stereo not shown) [Example 172, 6-[5-[2-[[3-[(1-aminocyclopropyl)methoxy]-1,4-dimethyl-6,7-dihydro-5H-cyclopenta[c]pyridin-6-yl]methylamino]ethyl]-2-oxo-1,3-oxazolidin-3-yl]-4H-pyrido[3,2-b][1,4]oxazin-3-one], the concentration for half-maximal inhibition (IC50) was < 97.7 nM.

As for `NC1(COc2cc(F)c3c(c2)CC(CNCCC2CN(c4cnc5c(n4)NC(=O)CO5)C(=O)O2)C3)CC1` (stereo not shown) [Example 161, 6-[5-[2-[[6-[(1-aminocyclopropyl)methoxy]-4-fluoro-2,3-dihydro-1H-inden-2-yl]methylamino]ethyl]-2-oxo-1,3-oxazolidin-3-yl]-4H-pyrazino[2,3-b][1,4]oxazin-3-one], the half-inhibitory concentration (IC50) is < 97.7 nM.

Take `O=C1COc2ccc(N3CC(CCNCC4(O)Cc5cccc(Cl)c5C4)OC3=O)nc2N1` (stereo not shown) [Example 232, 6-[5-[2-[(4-Chloro-2-hydroxy-1,3-dihydroinden-2-yl)methylamino]ethyl]-2-oxo-1,3-oxazolidin-3-yl]-4H-pyrido[3,2-b][1,4]oxazin-3-one; formic acid]: the IC50 is 495 nM.

As for `COc1cc2c(c(C#N)n1)CC(CNCCC1CN(c3ccc4c(n3)NC(=O)CO4)C(=O)O1)C2` (stereo not shown) [Example 53, 3-methoxy-6-[[2-[2-oxo-3-(3-oxo-4H-pyrido[3,2-b][1,4]oxazin-6-yl)-1,3-oxazolidin-5-yl]ethylamino]methyl]-6,7-dihydro-5H-cyclopenta[c]pyridine-1-carbonitrile], the concentration for half-maximal inhibition (IC50) is < 97.7 nM.

Take `NC1c2c(Cl)cccc2CC1CNCCC1CN(c2cnc3c(n2)NC(=O)CO3)C(=O)O1` (racemic) [Example 169, 6-[2-oxo-5-[2-[[rac-1,2-trans-1-amino-7-chloro-2,3-dihydro-1H-inden-2-yl]methylamino]ethyl]-1,3-oxazolidin-3-yl]-4H-pyrazino[2,3-b][1,4]oxazin-3-one]: the IC50 was < 97.7 nM.

Take `O=C1COc2ncc(N3CC(CCNCC4Cc5cc(OCCn6nccn6)cc(F)c5C4)OC3=O)nc2N1` (stereo not shown) [Example 343, 6-[5-[2-[[4-fluoro-6-(2-(triazol-2-yl)ethoxy]-2,3-dihydro-1H-inden-2-yl]methylamino]ethyl]-2-oxo-1,3-oxazolidin-3-yl]-4H-pyrazino[2,3-b][1,4]oxazin-3-one; formic acid]: the IC50 was found to be 617 nM.

In the case of `NC1(CCNCC2CN(c3ccc4c(n3)NC(=O)CO4)C(=O)O2)Cc2cccc(Cl)c2C1` (stereo not shown) [Example 142, 6-[5-[[2-(2-amino-4-chloro-1,3-dihydroinden-2-yl)ethylamino]methyl]-2-oxo-1,3-oxazolidin-3-yl]-4H-pyrido[3,2-b][1,4]oxazin-3-one; formic acid], the IC50 was < 97.7 nM.

In the case of `Cc1nc(OCCNC(C)C)c(C)c2c1CC(CNCCC1CN(c3ccc4c(n3)NC(=O)CO4)C(=O)O1)C2` (stereo not shown) [Example 201, 6-[5-[2-[[1,4-dimethyl-3-[2-(propan-2-ylamino)ethoxy]-6,7-dihydro-5H-cyclopenta[c]pyridin-6-yl]methylamino]ethyl]-2-oxo-1,3-oxazolidin-3-yl]-4H-pyrido[3,2-b][1,4]oxazin-3-one], the concentration for half-maximal inhibition (IC50) was found to be 157 nM.

Regarding `NC1c2cccc(Cl)c2CC1CNC1CC2(C1)CN(c1ccc3c(n1)NC(=O)CO3)C(=O)O2` (racemic) [Example 210, 2,4-cis-6-[6-oxo-2-[[rac-1,2-trans-1-amino-4-chloro-2,3-dihydro-1H-inden-2-yl]methylamino]-5-oxa-7-azaspiro[3.4]octan-7-yl]-4H-pyrido[3,2-b][1,4]oxazin-3-one], the half-maximal inhibitory concentration (IC50) came out at 295 nM.

`NC1c2cccc(Cl)c2CC1CCNCC1CN(c2ccc3c(n2)NC(=O)CO3)C(=O)O1` (racemic) [Example 194, 6-[2-oxo-5-[[2-[rac-1,2-trans-1-amino-4-chloro-2,3-dihydro-1H-inden-2-yl]ethylamino]methyl]-1,3-oxazolidin-3-yl]-4H-pyrido[3,2-b][1,4]oxazin-3-one]: the IC50 is < 97.7 nM.

Turning to `N[C@@H]1c2cccc(Cl)c2C[C@H]1CNCC[C@@H]1CN(c2cnc3c(n2)NC(=O)CO3)C(=O)O1` [Example 422, 6-[(5R)-5-[2-[[(1S,2S)-1-Amino-4-chloro-2,3-dihydro-1H-inden-2-yl]methylamino]ethyl]-2-oxo-1,3-oxazolidin-3-yl]-4H-pyrazino[2,3-b][1,4]oxazin-3-one], the IC50 is < 97.7 nM.

In the case of `CC(C)(O)COc1cc(F)c2c(c1)CC(CNCCC1CN(c3cnc4c(n3)NC(=O)CO4)C(=O)O1)C2` (stereo not shown) [Example 292, 6-[5-[2-[[4-fluoro-6-(2-hydroxy-2-methylpropoxy)-2,3-dihydro-1H-inden-2-yl]methylamino]ethyl]-2-oxo-1,3-oxazolidin-3-yl]-4H-pyrazino[2,3-b][1,4]oxazin-3-one], the half-inhibitory concentration (IC50) came to 403 nM.

For the compound `CN(C)C(=O)COc1cc(F)c2c(c1)CC(CNCCC1CN(c3ccc4c(n3)NC(=O)CO4)C(=O)O1)C2` (stereo not shown) [Example 77, 2-[[7-fluoro-2-[[2-[2-oxo-3-(3-oxo-4H-pyrido[3,2-b][1,4]oxazin-6-yl)-1,3-oxazolidin-5-yl]ethylamino]methyl]-2,3-dihydro-1H-inden-5-yl]oxy]-N,N-dimethylacetamide], the concentration for half-maximal inhibition (IC50) worked out at 393 nM.

For `Cc1nc2c(c3c1CC(CNCCC1CN(c4cnc5c(n4)NC(=O)CO5)C(=O)O1)C3)CCN2C` (stereo not shown) [Example 424, 6-[5-[2-[(5,8-Dimethyl-5,7-diazatricyclo[7.3.0.0^2,6]dodeca-1,6,8-trien-11-yl)methylamino]ethyl]-2-oxo-1,3-oxazolidin-3-yl]-4H-pyrazino[2,3-b][1,4]oxazin-3-one], the half-inhibitory concentration (IC50) stood at 227 nM.

Regarding `Cc1nnc(C)c2c1CC(CNCCC1CN(c3cnc4c(n3)NC(=O)CO4)C(=O)O1)C2` (stereo not shown) [Example 283, 6-[5-[2-[(1,4-dimethyl-6,7-dihydro-5H-cyclopenta[d]pyridazin-6-yl)methylamino]ethyl]-2-oxo-1,3-oxazolidin-3-yl]-4H-pyrazino[2,3-b][1,4]oxazin-3-one], the IC50 worked out at 888 nM.

For `NC1c2cccc(Cl)c2CC1CNCCC1CN(c2cnc3c(n2)NC(=O)CO3)C(=O)O1` (racemic) [Example 136, 6-[2-oxo-5-[2-[[rac-1,2-trans-1-amino-4-chloro-2,3-dihydro-1H-inden-2-yl]methylamino]ethyl]-1,3-oxazolidin-3-yl]-4H-pyrazino[2,3-b][1,4]oxazin-3-one; formic acid], the IC50 was determined as 112 nM.

Turning to `CC(N)COc1cc(C#N)c2c(c1)CC(CNCCC1CN(c3ccc4c(n3)NC(=O)CO4)C(=O)O1)C2` (stereo not shown) [Example 192, 6-(2-aminopropoxy)-2-[[2-[2-oxo-3-(3-oxo-4H-pyrido[3,2-b][1,4]oxazin-6-yl)-1,3-oxazolidin-5-yl]ethylamino]methyl]-2,3-dihydro-1H-inclene-4-carbonitrile; 2,2,2-trifluoroacetic acid], the 50% inhibitory concentration (IC50) was < 97.7 nM.

As for `CN(C)CCOc1cc(F)c2c(c1)CC(CNCCC1CN(c3cnc4c(n3)NC(=O)CO4)C(=O)O1)C2` (stereo not shown) [Example 272, 6-[5-[2-[[6-[2-(Dimethylamino)ethoxy]-4-fluoro-2,3-dihydro-H-inden-2-yl]methylamino]ethyl]-2-oxo-1,3-oxazolidin-3-yl]-4H-pyrazino[2,3-b][1,4]oxazin-3-one; formic acid], the IC50 was < 97.7 nM.

In the case of `CNC(=O)COc1cc(C#N)c2c(c1C)CC(CNCCC1CN(c3cnc4c(n3)NC(=O)CO4)C(=O)O1)C2` (stereo not shown) [Example 383, 2-[[7-cyano-4-methyl-2-[[2-[2-oxo-3-(3-oxo-4H-pyrazino[2,3-b][1,4]oxazin-6-yl)-1,3-oxazolidin-5-yl]ethylamino]methyl]-2,3-dihydro-1H-inden-5-yl]oxy]-N-methylacetamide], the IC50 came out at 139 nM.

Regarding `O=C1COc2ncc(N3CC(CCNCC4Cc5cc(OC6COC6)cc(F)c5C4)OC3=O)nc2N1` (stereo not shown) [Example 323, 6-[5-[2-[[4-fluoro-6-(oxetan-3-yloxy)-2,3-dihydro-1H-inden-2-yl]methylamino]ethyl]-2-oxo-1,3-oxazolidin-3-yl]-4H-pyrazino [2,3-b] [1,4]oxazin-3-one], the concentration for half-maximal inhibition (IC50) is 250 nM.

As to `CC(N)COc1cc(F)c2c(c1)CC(CN1CCC3(CC1)CN(c1cnc4c(n1)NC(=O)CO4)C(=O)O3)C2` (stereo not shown) [Example 260, 6-[8-[[6-(2-Aminopropoxy)-4-fluoro-2,3-dihydro-1H-inden-2-yl]methyl]-2-oxo-1-oxa-3,8-diazaspiro[4.5]decan-3-yl]-4H-pyrazino[2,3-b][1,4]oxazin-3-one; formic acid], the IC50 is < 97.7 nM.

The assay is the same for the next values; noted with them: strain Escherichia coli ATCC 25922; 10-point broth dilution, optical density at 600 nm over 16 h; read-out: Escherichia coli growth inhibition IC50.
For the compound `N#Cc1cccc2c1CC(NC1CCC3(CC1)CN(c1ccc4c(n1)NC(=O)CO4)C(=O)O3)C2` (single isomer, unassigned; isomer b) [Example 40, 2-[[2-oxo-3-(3-oxo-4H-pyrido[3,2-b][1,4]oxazin-6-yl)-1-oxa-3-azaspiro[4.5]decan-8-yl]amino]-2,3-dihydro-1H-indene-4-carbonitrile. Isomer B; formic acid], the IC50 was 153 nM.

As for `N#Cc1cccc2c1CC(NC1CCC3(CN(c4ccc5c(n4)NC(=O)CO5)C(=O)O3)C(N)C1)C2` (racemic) [Example 241, 2-[[rac-5,6-trans-5,8-cis-6-Amino-2-oxo-3-(3-oxo-4H-pyrido[3,2-b][1,4]oxazin-6-yl)-1-oxa-3-azaspiro[4.5]decan-8-yl]amino]-2,3-dihydro-1H-indene-4-carbonitrile; formic acid], the IC50 is 509 nM.

The values above are taken from patent publication US20230167127A1, “COMPOUNDS AND THEIR USE IN THE TREATMENT OF BACTERIAL INFECTION” (Hoffmann-La Roche Inc., priority 2020, published 2023).
